Among the data in PubChem BioAssay AID330 (DTP/NCI, 2004) are T/C values, retold here.

Each structure is given as a SMILES string. “And” between values parts separate entries of the source, which are not always exact repeats. Identical values can stand only once. Inconclusive results and toxic doses are left out. Numbered stars: 1 amine (or outer) side, 2 acyl side, 3 side chain; on linkers, the order of the positions; unused ones are H or OH. Bridge positions count the residues as written; N and C are the ends. Square brackets hold non-standard residues; d marks the D form. Peptide text beside a SMILES is read from it. I, II: the chains in the order shown. * marks the point of attachment. ξ: configuration not given here. Quinaldoyl(3-OH,6-OMe) = COc1ccc2nc(C(=O)*)c(O)cc2c1; X12 = CCC(=O)OC1CC=NN([*:1])C1C(=O)[*:2]; X8 = CC(=O)OC1CC=NN([*:1])C1C(=O)[*:2]; ξNMeVal(3-OH) = CNC(C(=O)O)C(C)(C)O; Cbz = O=C(OCc1ccccc1)*; Sar = CNCC(=O)O

For the experiment, the system named is P388 leukemia ip, CD2F1 mice, survival T/C. Nature of the experiment: NCI In Vivo Anticancer Drug Screen. Data for tumor model P388 Leukemia (intraperitoneal) in CD2F1 (CDF1) mice. As to conditions: endpoint: median survival time, higher = longer survival. An outline of the steps:
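Mice carrying the transplanted tumor received test compound or vehicle. Survival was recorded in each group, and the value is the treated-group measurement divided by that of the vehicle-treated control group.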

The mark [1] stands for this setting: dose: 60.0 mg/kg/injection, schedule: Q01DX005 (ip), vehicle: Klucel (hydroxypropylcellulose) (HPC).
Where [2] appears, read: dose: 120.0 mg/kg/injection, schedule: Q01DX005 (ip), vehicle: Klucel (hydroxypropylcellulose) (HPC).
The mark [3] stands for this setting: dose: 240.0 mg/kg/injection, schedule: Q01DX005 (ip), vehicle: Klucel (hydroxypropylcellulose) (HPC).
Where [4] appears, read: dose: 60.0 mg/kg/injection, schedule: Q01DX005 (ip), vehicle: saline with Tween-80.
The mark [5] stands for this setting: dose: 120.0 mg/kg/injection, schedule: Q01DX005 (ip), vehicle: saline with Tween-80.
The mark [6] stands for this setting: dose: 240.0 mg/kg/injection, schedule: Q01DX005 (ip), vehicle: saline with Tween-80.
Where [7] appears, read: dose: 50.0 mg/kg/injection, schedule: Q01DX005 (ip), vehicle: saline with Tween-80.
The mark [8] stands for this setting: dose: 100.0 mg/kg/injection, schedule: Q01DX005 (ip), vehicle: saline with Tween-80.
Setting [9] is: dose: 200.0 mg/kg/injection, schedule: Q01DX005 (ip), vehicle: saline with Tween-80.
The mark [10] stands for this setting: dose: 50.0 mg/kg/injection, schedule: Q01DX005 (ip), vehicle: saline.
[11] abbreviates: dose: 100.0 mg/kg/injection, schedule: Q01DX005 (ip), vehicle: saline.
[12] abbreviates: dose: 200.0 mg/kg/injection, schedule: Q01DX005 (ip), vehicle: saline.

Turning to `CCC(=O)OC1CC=NN2C(=O)C(NC(=O)c3nc4ccc(OC)cc4cc3O)COC(=O)C(C(C)(C)O)N(C)C(=O)CN(C)C(=O)CNC(=O)C3C(OC(C)=O)CC=NN3C(=O)C(NC(=O)c3nc4ccc(OC)cc4cc3O)COC(=O)C(C(C)(C)O)N(C)C(=O)CN(C)C(=O)CNC(=O)C12` (stereo not drawn) (I: {Quinaldoyl(3-OH,6-OMe)}-S[X12]G[Sar][ξNMeVal(3-OH)] / II: {Quinaldoyl(3-OH,6-OMe)}-S[X8]G[Sar][ξNMeVal(3-OH)]; ester I:1-II:C, I:C-II:1; configuration not given here), the T/C is, setting by setting: (dose: 20.0 micrograms/kg/injection, schedule: Q01DX005 (ip), vehicle: DMSO) 106 % of control; (dose: 40.0 micrograms/kg/injection, schedule: Q01DX005 (ip), vehicle: DMSO) 153 % of control; (dose: 80.0 micrograms/kg/injection, schedule: Q01DX005 (ip), vehicle: DMSO) 174 % of control; (dose: 160.0 micrograms/kg/injection, schedule: Q01DX005 (ip), vehicle: DMSO) 155 % of control.

Regarding `N#CC1=C(N)OC(C2CC2)=C(C#N)C1c1cccs1` (stereo not drawn), the T/C was 104 % of control under setting [1], 100 % of control under setting [2] and 96 % of control under setting [3].

Consider `O=C1Cc2cc3c(cc2C=C2CCCN12)OCO3`, for which the T/C runs as follows: (dose: 6.25 mg/kg/injection, schedule: Q01DX009 (ip), vehicle: water) 100 % of control; (dose: 12.5 mg/kg/injection, schedule: Q01DX009 (ip), vehicle: water) 100 % of control; (dose: 25.0 mg/kg/injection, schedule: Q01DX009 (ip), vehicle: water) 103 % of control; (dose: 50.0 mg/kg/injection, schedule: Q01DX009 (ip), vehicle: water) 106 % of control; (dose: 100.0 mg/kg/injection, schedule: Q01DX009 (ip), vehicle: water) 100 % of control.

With `Nc1nc(-c2ccccn2)cc(-c2cc(-c3ccccn3)nc(N)n2)n1`, the T/C is 102 % of control under setting [1] and 112 % of control under setting [2].

As for `C=CC1(OC)CC1C(=O)OCC` (stereo not drawn), the T/C was 99 % of control (dose: 43.0 mg/kg/injection, schedule: Q01DX005 (ip), vehicle: Klucel (hydroxypropylcellulose) (HPC)); 112 % of control (dose: 86.0 mg/kg/injection, schedule: Q01DX005 (ip), vehicle: Klucel (hydroxypropylcellulose) (HPC)); 97 % of control (dose: 172.0 mg/kg/injection, schedule: Q01DX005 (ip), vehicle: Klucel (hydroxypropylcellulose) (HPC)).

In the case of `O=C1C(O)=C(c2ccccc2)C12CSC1(CS2)C(=O)C(O)=C1c1ccccc1` (stereo not drawn), the T/C is 100 % of control under setting [4], 94 % of control under setting [5] and 91 % of control under setting [6].

On to `Cc1cccc(C(C)C)c1NC(=O)C(=O)C(C#N)c1ccc(CC#N)cc1` (stereo not drawn), for which the T/C was 99 % of control under setting [4] and 98 % of control under setting [5].

Regarding `C1CCC2(CC1)N=C1CCCCC1S2` (stereo not drawn), the T/C runs as follows: (dose: 6.25 mg/kg/injection, schedule: Q01DX005 (ip), vehicle: saline + Tween-80 + alcohol) 106 % of control; (dose: 12.5 mg/kg/injection, schedule: Q01DX005 (ip), vehicle: saline + Tween-80 + alcohol) 98 % of control; (dose: 25.0 mg/kg/injection, schedule: Q01DX005 (ip), vehicle: saline + Tween-80 + alcohol) 104 % of control.

With `O=C([O][Sn]([O]C(=O)c1ccccc1)([c]1ccccc1)[c]1ccccc1)c1ccccc1`, the T/C (dose: 3.12 mg/kg/injection, schedule: Q01DX005 (ip), vehicle: Klucel (hydroxypropylcellulose) (HPC)) was 111 % of control; the T/C (dose: 6.25 mg/kg/injection, schedule: Q01DX005 (ip), vehicle: Klucel (hydroxypropylcellulose) (HPC)) was 116 % of control and 123 % of control; the T/C (dose: 12.5 mg/kg/injection, schedule: Q01DX005 (ip), vehicle: Klucel (hydroxypropylcellulose) (HPC)) was 111 % of control and 123 % of control; the T/C (dose: 25.0 mg/kg/injection, schedule: Q01DX005 (ip), vehicle: Klucel (hydroxypropylcellulose) (HPC)) was 151 % of control.

As for `Nc1[nH]c(=S)[nH]c(=O)c1N=O`, the T/C is, setting by setting: (dose: 6.25 mg/kg/injection, schedule: Q01DX009 (ip), vehicle: saline) 100 % of control and 113 % of control; (dose: 12.5 mg/kg/injection, schedule: Q01DX009 (ip), vehicle: saline) 98 % of control; (dose: 25.0 mg/kg/injection, schedule: Q01DX009 (ip), vehicle: saline) 100 % of control and 117 % of control.

Consider `O=C(NC(Cc1ccc(O)cc1)C(=O)NC(Cc1ccccc1)C(=O)O)OCc1ccccc1` (stereo not drawn) (Cbz-Tyr-Phe-OH; configuration not given here), for which the T/C reads like this: under setting [7], 102 % of control; under setting [8], 106 % of control; under setting [9], 104 % of control.

As to `CCSc1n[nH]c(C2CCC(=O)N2Cc2ccccc2)n1` (stereo not drawn), the T/C is 103 % of control under setting [7], 104 % of control under setting [8] and 102 % of control under setting [9].

As to `CCCC(C(=O)OC)C(=O)C(C)c1nc2n(c1O)C(=N)N=N2` (stereo not drawn), the T/C under setting [10] was 97 % of control, the T/C under setting [11] is 97 % of control and the T/C under setting [12] is 98 % of control.

Take `CCCC/C=C/[Se]c1ccccc1`: the T/C by setting is: (dose: 25.0 mg/kg/injection, schedule: Q01DX009 (ip), vehicle: saline with Tween-80) 101 % of control; (dose: 50.0 mg/kg/injection, schedule: Q01DX009 (ip), vehicle: saline with Tween-80) 151 % of control; (dose: 100.0 mg/kg/injection, schedule: Q01DX009 (ip), vehicle: saline with Tween-80) 109 % of control.

`COc1c(C)c(=O)n2c3ccccc3n(C)c2c1C#N`: the T/C was 103 % of control under setting [4], 107 % of control under setting [5] and 99 % of control under setting [6].

Regarding `CCc1c(C(=O)OC)c(C(=O)OC)c(-c2ccc(C)cc2)n1CCn1c(CC)c(C(=O)OC)c(C(=O)OC)c1-c1ccc(C)cc1`, the T/C reads like this: under setting [1], 96 % of control; under setting [2], 101 % of control; under setting [3], 92 % of control.

For the compound `COC1CCCC2OC3(OC)C(OC)CCCC3OC12OC` (stereo not drawn), the T/C was 100 % of control (dose: 50.0 mg/kg/injection, schedule: Q04DX003 (ip), vehicle: Klucel (hydroxypropylcellulose) (HPC)); 97 % of control (dose: 100.0 mg/kg/injection, schedule: Q04DX003 (ip), vehicle: Klucel (hydroxypropylcellulose) (HPC)); 96 % of control (dose: 200.0 mg/kg/injection, schedule: Q04DX003 (ip), vehicle: Klucel (hydroxypropylcellulose) (HPC)).

In the case of `COc1ccc2c(c1OC)C(CC(C)=O)N1CCc3cc4c(cc3C1C2=O)OCO4` (stereo not drawn), the T/C is, setting by setting: under setting [1], 100 % of control; under setting [2], 92 % of control; under setting [3], 88 % of control.

In the case of `NCC(=O)CN.[Cl-].[Cl-].[Pt+2]`, the T/C (dose: 25.0 mg/kg/injection, schedule: Q04DX003 (ip), vehicle: other) was 121 % of control; the T/C (dose: 200.0 mg/kg/injection, schedule: Q04DX003 (ip), vehicle: other) is 158 % of control; the T/C (dose: 400.0 mg/kg/injection, schedule: Q04DX003 (ip), vehicle: other) is 177 % of control.

As to `[Cu+2].[NH-]C(CCC(N)=O)C(=O)O.[NH-]C(CCC(N)=O)C(=O)O` (stereo not drawn), the T/C is, setting by setting: (dose: 6.25 mg/kg/injection, schedule: Q04DX003 (ip), vehicle: saline) 100 % of control; (dose: 12.5 mg/kg/injection, schedule: Q04DX003 (ip), vehicle: saline) 90 % of control.

As to `C[Si](C)(C)C1OC1[Si](C)(C)C` (stereo not drawn), the T/C is 103 % of control (dose: 50.0 mg/kg/injection, schedule: Q04DX002 (ip), vehicle: other); 105 % of control (dose: 100.0 mg/kg/injection, schedule: Q04DX002 (ip), vehicle: other); 108 % of control (dose: 200.0 mg/kg/injection, schedule: Q04DX002 (ip), vehicle: other).

As to `O=c1cc(CCl)[nH]nc1CCl`, the T/C by setting is: (dose: 14.5 mg/kg/injection, schedule: Q04DX003 (ip), vehicle: saline with Tween-80) 160 % of control; (dose: 33.0 mg/kg/injection, schedule: Q04DX003 (ip), vehicle: saline with Tween-80) 158 % of control; (dose: 50.0 mg/kg/injection, schedule: Q04DX003 (ip), vehicle: saline with Tween-80) 173 % of control.

Regarding `CC(O)(CO)CC(C)(O)CO` (stereo not drawn), the T/C runs as follows: under setting [10], 97 % of control; under setting [11], 105 % of control; under setting [12], 103 % of control.

Regarding `C=C1CC2(CC(C)CCC2C(C)C)OC1=O` (stereo not drawn), the T/C (dose: 100.0 mg/kg/injection, schedule: Q01DX001 (ip), vehicle: saline) was 97 % of control; the T/C (dose: 200.0 mg/kg/injection, schedule: Q01DX001 (ip), vehicle: saline) is 100 % of control; the T/C (dose: 400.0 mg/kg/injection, schedule: Q01DX001 (ip), vehicle: saline) was 111 % of control.
